Measured values reported in EPA's ToxRefDB 2.

Key:
dog [1] = settings: Subchronic oral toxicity in nonrodent, beagle, Feed, dose end: 13 week, group: systemic, systemic / organ weight / liver / absolute + systemic / organ weight / liver / relative to body weight + systemic / pathology microscopic / …
rat [2] = settings: Combined chronic toxicity/carcinogenicity; wistar; Oral; Feed; dose end: 24 month; group: systemic; systemic / in life observation / body weight / body weight + systemic / in life observation / body weight / body weight gain + systemic / …
rabbit = settings: Prenatal developmental toxicity study, himalayan, Oral, Gavage/Intubation, dose end: 18 GD
mouse [3] = settings: Carcinogenicity, other, Oral, Feed, dose end: 26 month, group: systemic
mouse [4] = settings: Carcinogenicity, b6c3f1, Oral, Feed, dose end: 24 month, group: systemic
rat [5] = settings: Prenatal developmental toxicity study, wistar, Oral, Gavage/Intubation, dose end: 15 GD
rat [6] = settings: Subchronic oral toxicity in rodents, wistar, Feed, dose end: 90 day, group: systemic
dog [7] = settings: Chronic toxicity; beagle; Oral; Feed; dose end: 52 week; group: systemic; systemic / clinical chemistry / albumin / albumin + systemic / clinical chemistry / triglycerides / triglycerides + systemic / pathology …
rat [8] = settings: Prenatal developmental toxicity study, wistar, Dermal, Topical, dose end: 15 GD
dog [9] = settings: Subchronic oral toxicity in nonrodent, beagle, Feed, dose end: 90 day, group: systemic
mouse [10] = settings: Carcinogenicity, cd1, Oral, Feed, dose end: 18 month, group: systemic
rat [11] = settings: Combined chronic toxicity/carcinogenicity, sprague dawley, Oral, Feed, dose end: 2 year, group: systemic
dog [12] = settings: Chronic toxicity; beagle; Oral; Feed; dose end: 1 year; group: systemic; systemic / organ weight / kidney / absolute + systemic / pathology gross / liver / enlarged + systemic / pathology microscopic / epididymis…
rat [13] = settings: Multigenerational reproductive toxicity study, other, Oral, Feed, dose end: 2 generation
rat [14] = settings: Subchronic oral toxicity in rodents, other, Feed, dose end: 90 day, group: systemic
mouse [15] = settings: Subchronic oral toxicity in rodents, b6c3f1, Feed, dose end: 13 week, group: systemic
mouse [16] = settings: Sub-acute repeat dose toxicity, b6c3f1, Oral, Feed, dose end: 14 day, group: systemic
rat [17] = settings: Sub-acute repeat dose toxicity, fischer, Oral, Feed, dose end: 14 day, group: systemic
mouse [18] = settings: Carcinogenicity, b6c3f1, Oral, Feed, dose end: 103 week, group: systemic
rat [19] = settings: Subchronic oral toxicity in rodents, fischer, Feed, dose end: 13 week, group: systemic
rat [20] = settings: Carcinogenicity; fischer; Oral; Feed; dose end: 103 week; group: systemic; systemic / in life observation / body weight / body weight
[21] = group: developmental, developmental / developmental malformation / bone / [other] + developmental / developmental malformation / bone / absent + developmental / …
[22] = group: maternal, systemic / in life observation / body weight / body weight gain + systemic / in life observation / clinical signs / anal prolapse + systemic…
[23] = systemic / pathology gross / skin / desiccation + systemic / pathology microscopic / ear / hyperkeratosis + systemic / pathology microscopic…
[24] = systemic / pathology microscopic / adrenal gland / hyperplasia + systemic / clinical chemistry / bilirubin / total bilirubin
[25] = group: developmental, developmental / developmental malformation / bone / incomplete ossification + developmental / developmental malformation / bone / unossified…
[26] = group: maternal, systemic / in life observation / body weight / body weight + systemic / in life observation / body weight / body weight gain + systemic / in…
[27] = systemic / clinical chemistry / cytochrome p450, nos / cytochrome p450, nos + systemic / pathology microscopic / esophagus / hyperkeratosis…
[28] = group: developmental, developmental / developmental malformation / bone / incomplete ossification + developmental / developmental malformation / bone / unossified
[29] = group: maternal, systemic / in life observation / clinical signs / erythema + systemic / pathology gross / skin / [other]
[30] = group: maternal, systemic / in life observation / clinical signs / erythema + systemic / pathology gross / skin / [other] + systemic / pathology gross / skin…
[31] = systemic / urinalysis / specific gravity/osmolality / specific gravity/osmolality + systemic / urinalysis / volume / volume
[32] = systemic / in life observation / body weight / body weight + systemic / pathology microscopic / stomach / cyst + systemic / pathology …
[33] = systemic / in life observation / body weight / body weight gain + systemic / organ weight / liver / relative to body weight + systemic / …
[34] = group: offspring, systemic / in life observation / body weight / offspring (pup) weight + systemic / in life observation / clinical signs / reduced body size
[35] = group: parental, systemic / in life observation / body weight / body weight gain
[36] = group: reproductive, reproductive / reproductive performance / gestational length / gestational length
[37] = systemic / clinical chemistry / alanine aminotransferase (alt/sgpt) / alanine aminotransferase (alt/sgpt) + systemic / clinical chemistry / …
[38] = systemic / in life observation / body weight / body weight gain
[39] = systemic / in life observation / body weight / body weight gain + systemic / in life observation / body weight / body weight
[40] = systemic / in life observation / body weight / body weight
[41] = systemic / in life observation / body weight / body weight + systemic / in life observation / food consumption / food consumption + systemic…
[42] = systemic / in life observation / body weight / body weight gain + systemic / in life observation / food consumption / food consumption + …
[43] = systemic / in life observation / body weight / body weight + systemic / pathology microscopic / liver / adenoma/carcinoma combined + …

CCCN(CC)CC1COC2(CCC(C(C)(C)C)CC2)O1 (centres undefined) [Spiroxamine]
LEL (dog [1]): 20 mg/kg/day | LOAEL (dog [1]): 20 mg/kg/day | NEL (dog [1]): 0.66 mg/kg/day | NOAEL (dog [1]): 0.66 mg/kg/day | LEL (rat [2]): 32.8 mg/kg/day | LOAEL (rat [2]): 32.8 mg/kg/day | NEL (rat [2]): 4.22 mg/kg/day | NOAEL (rat [2]): 4.22 mg/kg/day | LEL (rabbit; [21]): 80 mg/kg/day | LOAEL (rabbit; [21]): 80 mg/kg/day | NEL (rabbit; [21]): 20 mg/kg/day | NOAEL (rabbit; [21]): 20 mg/kg/day | LEL (rabbit; [22]): 80 mg/kg/day | LOAEL (rabbit; [22]): 80 mg/kg/day | NEL (rabbit; [22]): 20 mg/kg/day | NOAEL (rabbit; [22]): 20 mg/kg/day | LOAEL (mouse [3]; [23]): 59.3 mg/kg/day | NEL (mouse [3]; [23]): 4.5 mg/kg/day | NOAEL (mouse [3]; [23]): 36.7 mg/kg/day | LEL (mouse [3]; systemic / pathology microscopic / esophagus / acanthosis + systemic / pathology microscopic / esophagus / hyperkeratosis + systemic / …): 36.7 mg/kg/day | LOAEL (mouse [4]; systemic / pathology microscopic / adrenal gland / hyperplasia): 150 mg/kg/day | LEL (mouse [4]; [24]): 41 mg/kg/day | NEL (mouse [4]; [24]): < 41 mg/kg/day | NOAEL (mouse [4]; systemic / pathology microscopic / adrenal gland / hyperplasia + systemic / pathology microscopic / adrenal gland / adenoma + systemic / …): 41 mg/kg/day | LOAEL (rat [5]; group: developmental, developmental / developmental malformation / bone / [other] + developmental / developmental malformation / mouth / jaw / cleft palate + …): 100 mg/kg/day | LEL (rat [5]; [25]): 10 mg/kg/day | NEL (rat [5]; [25]): < 10 mg/kg/day | NOAEL (rat [5]; [25]): 30 mg/kg/day | LEL (rat [5]; [26]): 100 mg/kg/day | LOAEL (rat [5]; [26]): 100 mg/kg/day | NEL (rat [5]; [26]): 30 mg/kg/day | NOAEL (rat [5]; [26]): 30 mg/kg/day | LEL (rat [6]; [27]): 9.3 mg/kg/day | NEL (rat [6]; [27]): 1.9 mg/kg/day | NOAEL (rat [6]; [27]): 9.3 mg/kg/day | LOAEL (rat [6]; systemic / pathology microscopic / esophagus / hyperkeratosis + systemic / pathology microscopic / esophagus / hyperplasia + systemic / …): 54.9 mg/kg/day | LEL (dog [7]): 25.8 mg/kg/day | LOAEL (dog [7]): 25.8 mg/kg/day | NEL (dog [7]): 2.48 mg/kg/day | NOAEL (dog [7]): 2.48 mg/kg/day | LEL (rat [8]; [28]): 80 mg/kg/day | LOAEL (rat [8]; [28]): 80 mg/kg/day | NEL (rat [8]; [28]): 20 mg/kg/day | NOAEL (rat [8]; [28]): 20 mg/kg/day | LOAEL (rat [8]; [29]): 5 mg/kg/day | NOAEL (rat [8]; [29]): < 5 mg/kg/day | LEL (rat [8]; [30]): 5 mg/kg/day | NEL (rat [8]; [30]): < 5 mg/kg/day

CCS(=O)(=O)c1cccnc1S(=O)(=O)NC(=O)Nc1nc(OC)cc(OC)n1 [Rimsulfuron]
LEL (dog [9]; [31]): 6.25 mg/kg/day | LOAEL (dog [9]; [31]): 125 mg/kg/day | NEL (dog [9]; [31]): < 6.25 mg/kg/day | NOAEL (dog [9]; systemic / urinalysis / specific gravity/osmolality / specific gravity/osmolality + systemic / urinalysis / volume / volume + systemic / …): 6.25 mg/kg/day | LOAEL (mouse [10]; [32]): 1130 mg/kg/day | NEL (mouse [10]; [32]): 3.47 mg/kg/day | NOAEL (mouse [10]; [32]): 351 mg/kg/day | LEL (mouse [10]; systemic / pathology microscopic / testes / degeneration): 35.5 mg/kg/day | LEL (rat [11]; systemic / clinical chemistry / alkaline phosphatase (alp/alk) / alkaline phosphatase (alp/alk)): 11.8 mg/kg/day | LOAEL (rat [11]; systemic / in life observation / body weight / body weight gain + systemic / organ weight / liver / relative to body weight): 121 mg/kg/day | NEL (rat [11]; [33]): 1 mg/kg/day | NOAEL (rat [11]; [33]): 11.8 mg/kg/day | LEL (dog [12]): 81.8 mg/kg/day | LOAEL (dog [12]): 81.8 mg/kg/day | NEL (dog [12]): 1.6 mg/kg/day | NOAEL (dog [12]): 1.6 mg/kg/day | LEL (rat [13]; [34]): 1320 mg/kg/day | LOAEL (rat [13]; [34]): 1320 mg/kg/day | NEL (rat [13]; [34]): 264 mg/kg/day | NOAEL (rat [13]; [34]): 264 mg/kg/day | LEL (rat [13]; [35]): 830 mg/kg/day | LOAEL (rat [13]; [35]): 830 mg/kg/day | NEL (rat [13]; [35]): 165 mg/kg/day | NOAEL (rat [13]; [35]): 165 mg/kg/day | LEL (rat [13]; [36]): 1020 mg/kg/day | LOAEL (rat [13]; [36]): > 1020 mg/kg/day | NEL (rat [13]; [36]): 204 mg/kg/day | NOAEL (rat [13]; [36]): ≥ 1020 mg/kg/day | LEL (rat [14]; [37]): 3.35 mg/kg/day | NEL (rat [14]; [37]): < 3.35 mg/kg/day | NOAEL (rat [14]; [37]): 102 mg/kg/day | LOAEL (rat [14]; [38]): 495 mg/kg/day

CCCCC(CC)COC(=O)CCCCC(=O)OCC(CC)CCCC (centres undefined) [Di(2-ethylhexyl) adipate]
LEL (mouse [15]; [38]): 465 mg/kg/day | LOAEL (mouse [15]; [39]): > 3750 mg/kg/day | NEL (mouse [15]; [39]): 240 mg/kg/day | NOAEL (mouse [15]; [39]): ≥ 3750 mg/kg/day | LEL (mouse [16]; [40]): 3750 mg/kg/day | LOAEL (mouse [16]; [40]): 7500 mg/kg/day | NEL (mouse [16]; [41]): 1880 mg/kg/day | NOAEL (mouse [16]; [41]): 3750 mg/kg/day | LEL (rat [17]; [38]): 1250 mg/kg/day | LOAEL (rat [17]; [38]): 2500 mg/kg/day | NEL (rat [17]; [42]): 625 mg/kg/day | NOAEL (rat [17]; [42]): 1250 mg/kg/day | LOAEL (mouse [18]; [40]): 1800 mg/kg/day | NOAEL (mouse [18]; [40]): < 1800 mg/kg/day | LEL (mouse [18]; [43]): 1800 mg/kg/day | NEL (mouse [18]; [43]): < 1800 mg/kg/day | LEL (rat [19]; [38]): 625 mg/kg/day | LOAEL (rat [19]; [38]): 625 mg/kg/day | NEL (rat [19]; [39]): 315 mg/kg/day | NOAEL (rat [19]; [39]): 315 mg/kg/day | LEL (rat [20]): 1250 mg/kg/day | LOAEL (rat [20]): 1250 mg/kg/day | NEL (rat [20]): 600 mg/kg/day | NOAEL (rat [20]): 600 mg/kg/day
